In patent US9440941B2, “Substituted chroman-6-yloxy-cycloalkanes and their use as pharmaceuticals” (SANOFI, priority 2013, dated 2016):
Structures can show the parent of a compound that is named as a salt.

These molecules were tested against T1, human NCX1 (Homo sapiens, UniProt P32418) (assay: Inhibition of Ca2+ influx into cells (NCX1 reverse mode), FLIPR Fluo-4 assay). Settings: inhibition of NCX1 in reverse mode (Ca2+ influx into cells); read-out: NCX1rv IC50.
T1 construct: expressed in transfected cells
Assay type: cell-based
Summary of the method: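 CHO cells stably expressing human NCX1, loaded with Fluo-4 AM, preincubated with compound 45 min at 16 °C in pH 7.4 buffer (3.5 mM CaCl2). Reverse mode triggered by 20 µM gramicidin (final); Fluo-4 fluorescence read at 520 nm every 2 s. IC50 from percentage inhibition of max-minus-min fluorescence.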
`Fc1ccccc1C1CCc2cc(OC3CCC(NC4CCCC4)CC3)ccc2O1` (stereo not drawn) [compound 218] showed an IC50 of 2800 nM. With `COCC(C)NC1CCC(Oc2ccc3c(c2)CCC(c2ccccc2F)O3)CC1` (stereo not drawn) [compound 219] the IC50 was 2400 nM. Work on `Fc1ccccc1C1CCc2cc(OC3CCC(NCCC4CCOCC4)CC3)ccc2O1` (stereo not drawn) [compound 220] yielded an IC50 of 2400 nM. `COC[C@H](C)NC1CCC(Oc2ccc3c(c2)CCC(c2ccccc2F)O3)CC1` (stereo partly drawn) [compound 221] showed an IC50 of 2300 nM. Molecule `CCC(COC)NC1CCC(Oc2ccc3c(c2)CCC(c2ccccc2F)O3)CC1` (stereo not drawn) [compound 222] has an IC50 of 3100 nM. Molecule `CCOCCCNC1CCC(Oc2ccc3c(c2)CCC(c2ccccc2F)O3)CC1` (stereo not drawn) [compound 223] has an IC50 of 3100 nM. Work on `Fc1ccccc1C1CCc2cc(OC3CCC(NCCN4CCOCC4)CC3)ccc2O1` (stereo not drawn) [compound 224] yielded an IC50 of 3500 nM. For `CC(C)OCCCNC1CCC(Oc2ccc3c(c2)CCC(c2ccccc2F)O3)CC1` (stereo not drawn) [compound 225], the IC50 was 3900 nM. `CSCCNC1CCC(Oc2ccc3c(c2)CCC(c2ccccc2F)O3)CC1` (stereo not drawn) [compound 226] gave an IC50 of 2400 nM. `Fc1ccccc1C1CCc2cc(OC3CCC(NCCN4CCSCC4)CC3)ccc2O1` (stereo not drawn) [compound 227] showed an IC50 of 4300 nM. `Fc1ccccc1C1CCc2cc(OC3CCC(NCCCC4CCOC4)CC3)ccc2O1` (stereo not drawn) [compound 228] showed an IC50 of 2200 nM. With `Fc1ccccc1C1CCc2cc(OC3CCC(NCCCOC4CCCC4)CC3)ccc2O1` (stereo not drawn) [compound 229] the IC50 was 6000 nM. Molecule `CCCCNC1CCC(Oc2ccc3c(c2)CCC(c2ccccc2F)O3)CC1` (stereo not drawn) [compound 230] has an IC50 of 2900 nM. With `Fc1ccccc1C1CCc2cc(OC3CCC(NC4CCOCC4)CC3)ccc2O1` (stereo not drawn) [compound 231] the IC50 was 4100 nM. Work on `CC(C)SCCNC1CCC(Oc2ccc3c(c2)CCC(c2ccccc2F)O3)CC1` (stereo not drawn) [compound 232] yielded an IC50 of 5900 nM. In the case of `O=C(N[C@H]1CC[C@H](Oc2ccc3c(c2)CCC(c2ccccc2F)O3)CC1)C1CCC1` (stereo partly drawn) [compound 244], the IC50 is reported as 100 nM. With `CO[C@H](C)C(=O)N[C@H]1CC[C@H](Oc2ccc3c(c2)CCC(c2ccccc2F)O3)CC1` (stereo partly drawn) [compound 255] the IC50 was 200 nM. In the case of `Cc1c(F)cccc1C1CCc2cc(OC3CCC(C(=O)NCCO)CC3)ccc2O1` (stereo not drawn) [compound 262], the IC50 is reported as 200 nM. In the case of `Cc1c(F)cccc1C1CCc2cc(OC3CCC(C(=O)NCc4ccno4)CC3)ccc2O1` (stereo not drawn) [compound 263], the IC50 is reported as 100 nM. Work on `Cc1ccccc1C1CCc2cc(OC3CCC(C(=O)NC(CO)CO)CC3)ccc2O1` (stereo not drawn) [compound 264] yielded an IC50 of 200 nM. `Cc1c(F)cccc1C1CCc2cc(OC3CCC(C(=O)NCC(N)=O)CC3)ccc2O1` (stereo not drawn) [compound 272] was tested, and the IC50 was 400 nM. With `Cc1c(F)cccc1C1CCc2cc(OC3CCC(C(=O)NCC(=O)N(C)C)CC3)ccc2O1` (stereo not drawn) [compound 273] the IC50 was 600 nM. For `Cc1c(F)cccc1C1CCc2cc(OC3CCC(C(=O)NCCS(=O)(=O)N(C)C)CC3)ccc2O1` (stereo not drawn) [compound 274], the IC50 was 600 nM. `CNS(=O)(=O)CCNC(=O)C1CCC(Oc2ccc3c(c2)CCC(c2cccc(F)c2C)O3)CC1` (stereo not drawn) [compound 275] was tested, and the IC50 was 400 nM. `Cc1c(F)cccc1C1CCc2cc(OC3CCC(C(=O)NCC(C)O)CC3)ccc2O1` (stereo not drawn) [compound 276] was tested, and the IC50 was 600 nM. With `Cc1c(F)cccc1C1CCc2cc(OC3CCC(C(=O)NCCNS(C)(=O)=O)CC3)ccc2O1` (stereo not drawn) [compound 277] the IC50 was 300 nM. In the case of `CNC(=O)CNC(=O)C1CCC(Oc2ccc3c(c2)CCC(c2cccc(F)c2C)O3)CC1` (stereo not drawn) [compound 281], the IC50 is reported as 500 nM. `CSC(C)CCNC(=O)C1CCC(Oc2ccc3c(c2)CCC(c2cccc(F)c2C)O3)CC1` (stereo not drawn) [compound 282] gave an IC50 of 400 nM. For `CCn1nccc1CNC(=O)C1CCC(Oc2ccc3c(c2)CCC(c2cccc(F)c2C)O3)CC1` (stereo not drawn) [compound 283], the IC50 was 600 nM. `Cc1c(F)cccc1C1CCc2cc(OC3CCC(C(=O)NC[C@@H]4CCCC[C@H]4O)CC3)ccc2O1` (stereo partly drawn) [compound 284] gave an IC50 of 800 nM. For `Cc1cc2c(cc1OC1CCC(C(=O)NCCO)CC1)CCC(c1ccccc1C)O2` (stereo not drawn) [compound 288], the IC50 was 1900 nM. `Cc1cc2c(cc1OC1CCC(C(=O)NCc3ccno3)CC1)CCC(c1ccccc1C)O2` (stereo not drawn) [compound 289] gave an IC50 of 1300 nM. `CCn1nccc1CNC(=O)C1CCC(Oc2cc3c(cc2C)OC(c2ccccc2C)CC3)CC1` (stereo not drawn) [compound 290] gave an IC50 of 1500 nM. `O=C(NCCO)C1CCC(Oc2ccc3c(c2Cl)CCC(c2ccccc2)O3)CC1` (stereo not drawn) [compound 291] was tested, and the IC50 was 1100 nM. With `O=C(NCc1ccno1)C1CCC(Oc2ccc3c(c2Cl)CCC(c2ccccc2)O3)CC1` (stereo not drawn) [compound 292] the IC50 was 1900 nM. `CCn1nccc1CNC(=O)C1CCC(Oc2ccc3c(c2Cl)CCC(c2ccccc2)O3)CC1` (stereo not drawn) [compound 293] was tested, and the IC50 was 4700 nM. With `COc1cccc(C2CCc3cc(OC4CCC(C(=O)NCCO)CC4)ccc3O2)c1F` (stereo not drawn) [compound 294] the IC50 was 1300 nM. In the case of `COc1cccc(C2CCc3cc(OC4CCC(C(=O)NCc5ccno5)CC4)ccc3O2)c1F` (stereo not drawn) [compound 295], the IC50 is reported as 1100 nM. For `CCn1nccc1CNC(=O)C1CCC(Oc2ccc3c(c2)CCC(c2cccc(OC)c2F)O3)CC1` (stereo not drawn) [compound 296], the IC50 was 900 nM. For `CCn1nccc1CNC(=O)C1CCC(Oc2ccc3c(c2)CC(C)C(c2ccccc2)O3)CC1` (stereo not drawn) [compound 297], the IC50 was 500 nM. Molecule `CC1Cc2cc(OC3CCC(C(=O)NCc4ccno4)CC3)ccc2OC1c1ccccc1` (stereo not drawn) [compound 298] has an IC50 of 1400 nM. With `CC1Cc2cc(OC3CCC(C(=O)NCCO)CC3)ccc2OC1c1ccccc1` (stereo not drawn) [compound 299] the IC50 was 1900 nM. `CCn1nccc1CNC(=O)C1CCC(Oc2ccc3c(c2)CCC(c2cccc(F)c2OC)O3)CC1` (stereo not drawn) [compound 300] gave an IC50 of 400 nM. Molecule `COc1c(F)cccc1C1CCc2cc(OC3CCC(C(=O)NCc4ccno4)CC3)ccc2O1` (stereo not drawn) [compound 301] has an IC50 of 200 nM. `COc1c(F)cccc1C1CCc2cc(OC3CCC(C(=O)NCCO)CC3)ccc2O1` (stereo not drawn) [compound 302] showed an IC50 of 400 nM. Molecule `N[C@@H]1CC[C@@H](Oc2ccc3c(c2)CCC(c2ccccc2)O3)C1` (stereo partly drawn) [compound 304, hydrochloride] has an IC50 of 600 nM. With `NCC1CCC(Oc2ccc3c(c2)CCC(c2ccccc2)O3)C1` (stereo not drawn) [compound 305, hydrochloride] the IC50 was 1500 nM. “N-(1,3-Dimethylbutyl)-4-(2-phenylchroman-6-yloxy)-cyclohexylamine [compound 141]” showed an IC50 of 1000 nM. In the case of “N-(2-Ethylsulfanylethyl)-4-(2-phenylchroman-6-yloxy)-cyclohexylamine [compound 131]”, the IC50 is reported as 600 nM. Molecule “N-(2-Hydroxy-1,1-dimethyl-ethyl)-4-(2-phenylchroman-6-yloxy)-cyclohexanecarboxamide [compound 151]” has an IC50 of 1300 nM. Work on “N-(2-Methoxyethyl)-4-(2-phenylchroman-6-yloxy)-cyclohexylamine [compound 132]” yielded an IC50 of 700 nM. In the case of “N-(2-tert-Butoxyethyl)-4-(2-phenylchroman-6-yloxy)-cyclohexylamine [compound 135]”, the IC50 is reported as 800 nM. “N-(3,3-Dimethylbutyl)-4-(2-phenylchroman-6-yloxy)-cyclohexylamine [compound 152]” showed an IC50 of 1400 nM. “N-(3-Hydroxypropyl)-4-(2-phenylchroman-6-yloxy)-cyclohexanecarboxamide [compound 150]” showed an IC50 of 900 nM. For “N-(3-Methylbutyl)-4-(2-phenylchroman-6-yloxy)-cyclohexylamine [compound 130]”, the IC50 was 800 nM. “N-((S)-2-Methoxy-1-methyl-ethyl)-4-(2-phenylchroman-6-yloxy)-cyclohexylamine [compound 140]” was tested, and the IC50 was 1400 nM. “N-But-3-enyl-4-(2-phenylchroman-6-yloxy)-cyclohexylamine [compound 148]” was tested, and the IC50 was 900 nM.
